From article PMC6879718, “Mycobacterial OtsA Structures Unveil Substrate Preference Mechanism and Allosteric Regulation by 2-Oxoglutarate and 2-Phosphoglycerate” (mBio, 2019)

Key:
[1] = molecular target: T1, M. thermoresistibile OtsA R213E (Mycolicibacterium thermoresistibile, UniProt G7CGT2, R213E); assay: Effect of allosteric regulators on OtsA activity (R213E); format: biochemical, Mycobacterium thermoresistibile
T1 sequence (G7CGT2 1-486 R213E): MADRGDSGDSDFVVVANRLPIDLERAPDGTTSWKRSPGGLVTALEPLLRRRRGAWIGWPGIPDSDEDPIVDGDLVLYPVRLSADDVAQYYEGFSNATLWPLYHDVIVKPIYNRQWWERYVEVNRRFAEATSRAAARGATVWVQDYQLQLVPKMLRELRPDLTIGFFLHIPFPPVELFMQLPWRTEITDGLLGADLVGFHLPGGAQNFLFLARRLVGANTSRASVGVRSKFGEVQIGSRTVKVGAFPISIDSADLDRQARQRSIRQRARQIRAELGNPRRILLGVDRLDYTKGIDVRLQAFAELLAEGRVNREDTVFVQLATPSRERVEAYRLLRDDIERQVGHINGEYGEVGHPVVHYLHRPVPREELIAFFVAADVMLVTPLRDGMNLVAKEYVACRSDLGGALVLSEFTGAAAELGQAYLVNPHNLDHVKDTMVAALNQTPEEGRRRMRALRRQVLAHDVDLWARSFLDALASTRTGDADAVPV
Method: (§1) . All reagents used were obtained from Sigma-Aldrich. The enzymatic reactions (200-μl reaction mixture) were performed at 37°C, and the reaction mixtures contained 50 mM Tris (pH 7.5), 200 mM NaCl, 10 mM MgCl2, 50 mM KCl, 0.3 mM NADH, 2.5 mM phosphoenolpyruvate (PEP), 10 units of pyruvate kinase-lactate dehydrogenase, 0.1 μM enzyme, and various concentrations of G6P and NDP-glucose to determine kinetic parameters.
(§2) […]. All experiments were performed in triplicate in a PHERAstar plate reader (BMG Labtech), and data were analyzed with Prism 5 (GraphPad Software).

[2] = molecular target: T2, M. thermoresistibile OtsA R384E (Mycolicibacterium thermoresistibile, UniProt G7CGT2, R384E); assay: Effect of allosteric regulators on OtsA activity (R384E); format: biochemical, Mycobacterium thermoresistibile
T2 sequence (G7CGT2 1-486 R384E): T1 sequence (G7CGT2 1-486 R213E)
Method: as §1, §2

## O=C(O)C(CO)OP(=O)(O)O (centres unmarked) [2PG, 2-phosphoglyceric acid]
[1]
  IC50: 12 mM
[2]
  IC50: < 100 mM
